From US20100298252A1, “METHODS AND COMPOSITIONS FOR OPHTHALMIC TREATMENT OF FUNGAL AND BACTERIAL INFECTIONS” (priority 2004, published 2010) come the findings set out here.

Common to all, as to type: cell-based
The subject of assay [1] is Enterococcus faecalis. Nature of the assay: Antibiotic resistance profile by disc diffusion. Also noted: key: R = resistant; I = intermediate; S = sensitive. Particulars: disc diffusion on MHA. The protocol: (§1) The organisms of this study were isolated from human burn patients. They included strains of methicillin resistant Staphylococcus aureus, and vancomycin resistant strains of Pseudomonas aeruginosa and Enterococcus faecalis. The bacterial isolates were propagated in or on Brain Heart Infusion broth (BHI), Mueller-Hinton Broth (MHB), blood agar (BA), Mueller-Hinton agar (MHA), enterococcus agar (EA), or 2× nutrient agar (2×NA).
(§2) Antibiotic resistance profiles were determined by the disc diffusion method on MHA (5).

Assay [2] concerns Pseudomonas aeruginosa. Briefly: Antibiotic resistance profile by disc diffusion. Particulars: disc diffusion on MHA. Details: key: R = resistant; I = intermediate; S = sensitive. The method, then: as §1, §2
In general terms: A growth-free zone around the sample is the usual read-out of agar diffusion tests.

Assay [3] has as its system Staphylococcus aureus. Nature of the assay: Antibiotic resistance profile by disc diffusion. Also noted: key: R = resistant; I = intermediate; S = sensitive. Particulars: disc diffusion on MHA. The protocol: as §1, §2
The subject of assay [4] is Enterococcus faecalis. Briefly: MIC and FIC index, microtiter checkerboard / broth dilution. Particulars: Ent. faecalis; antibiotic alone. The method, then:
(§3) Agents and Chem. 210-217. (1967) and Sparks et al., Vet. Res. Comm. 18, 241-249 (1994), incorporated herein by reference in their entireties. […] Then 0.05 ml of an 18-hour old culture of a test organism, containing 10^6 colony-forming units (CFU)/ml, was added to each well. Controls for the culture and media were included in each plate. Plates were covered and incubated at 37° Celsius for 18-24 hours. […] To generate isobolograms, FICs of the two test solutions were plotted individually on the x-axis and y-axis to determine the effect of combining the two test solutions on bacterial growth. A line that curves away from, the zero point and the coordinates indicates antagonism. […] A numerical score or fractional inhibitory concentration (FIC) index was determined. The FIC index is equal to the sum of the values of FIC for the individual drugs: […] Am. Soc. Microbiol. Williams and Wilkins, Baltimore 1970), incorporated herein by reference in its entirety. […] Ps. aeruginosa, and Ent. faecalis.
On the technique in general: Broth dilution looks for growth in wells or tubes with falling amounts of substance.

Assay [5] concerns Pseudomonas aeruginosa. The description is as above. Particulars: Ps. aeruginosa; antibiotic alone. The method, then: as §3
Assay [6] concerns Staphylococcus aureus. The assay is described as above. Particulars: Staph. aureus; antibiotic alone. The method, then:
as §3

The test system of assay [7] is Enterococcus faecalis. Nature of the assay: Minimal Bactericidal Concentration, broth-dilution microtiter. The text has this:
(§4) 307 (pub: Am. Soc. Microbiol. Williams and Wilkins, Baltimore 1970), incorporated herein by reference in its entirety.

Assay [8] deals with Pseudomonas aeruginosa. The assay is described as above. Particulars: Ps. aeruginosa.
Excerpt: as §4

For assay [9], the system named is Staphylococcus aureus. Described as above. Particulars: Staph. aureus.
Excerpt: as §4

Where [10] appears, read: neomycin co-administered with EDTA, 50 mM Tris.

Values joined by “and” are separate entries in the source; they are usually repeats but may differ in a detail not shown here. Equal entries are not always repeated.

Take neomycin: the Antibiotic resistance profile entry in the assay with Enterococcus faecalis [1], in the assay with Pseudomonas aeruginosa [2] and in the assay on Staphylococcus aureus [3] was “R” each time. For the same substance, the figures for the “MIC Individually Administered, antibiotic” value in the assay with Enterococcus faecalis [4], with Pseudomonas aeruginosa [5] and in the assay with Staphylococcus aureus [6] were 3.13 mg/mL, 1.0 mg/mL and 3.13 mg/mL, respectively. In addition, the “MBC Individually Administered” value in the assay on Enterococcus faecalis [7] (En. faecalis, neomycin alone, 50 mM Tris) is 25.0 mg/mL; in the assay on Pseudomonas aeruginosa [8] (neomycin alone, 50 mM Tris) it was 5.0 mg/mL; against Staphylococcus aureus [9] (neomycin alone, 50 mM Tris), 3.13 mg/mL. For the same substance, the “MBC Co-administered” value in the assay on Enterococcus faecalis [7] (En. faecalis, neomycin co-administered with EDTA, 50 mM Tris) came to 6.25 mg/mL; in the assay with Pseudomonas aeruginosa [8] (setting [10]) it was 0.04 mg/mL; with Staphylococcus aureus [9] (setting [10]), 1.56 mg/mL. The “Decrease of MBC value when EDTA and neomycin combined vs individually administered” value in the assay with Enterococcus faecalis [7] (Ent. faecalis) is 75%; in the assay with Pseudomonas aeruginosa [8], 99.2%; with Staphylococcus aureus [9], “about 50% and 50%”.
